# Measured values reported in patent publication US20210008175A1, “BACTERIOPHAGE LYSIN AND ANTIBIOTIC COMBINATIONS AGAINST GRAM POSITIVE BACTERIA” (priority 2012, published 2021).
# Read-outs that look alike come from different tables or passages of the source. Marks after values point to notes of the source that are not given here.
# Tests used:
# Staphylococcus aureus = test: MIC, broth microdilution (CLSI M07-A9); format: cell-based
# [1] = tested on: Staphylococcus aureus (MRSA and MSSA strains); test: Time kill assay, single agents at 1×MIC (CLSI); format: cell-based
# MRSA S. aureus strains = test: Dual agent MIC assay (PlySs2 and daptomycin together, broth microdilution); format: cell-based; details: for MIC combo: PlySs2 and daptomycin combined; for MIC: Staphylococcus aureus, MRSA
# S. aureus [2] = test: Cell envelope binding of BODIPY-fluorescein-labeled antibiotics; format: cell-based
# Method: As a complement to the synergy studies, daptomycin and vancomycin cell envelope-binding was examined using BODIPY-fluorescein-labeled antibiotics in the presence and absence of sub-MIC levels of CF-301. […] Similarly, cell wall-labeling with vancomycin occurs within 5 minutes in the presence of CF-301 (⅛^th MIC) versus 30 minutes without CF-301 (FIG. 20B). For both antibiotics, the labeling was first observed at bacterial division planes.
# [3] = tested on: MRSA strain MW2 and MSSA strain ATCC 29213; test: MIC in the presence of surfactant (Survanta), broth microdilution; format: cell-based, Staphylococcus aureus
# MRSA strain 269 (MW2) = test: Combination MIC study in the presence of 15% surfactant (Survanta); format: cell-based, Staphylococcus aureus; details: PlySs2 plus daptomycin
# S. aureus [4] = test: Murine bacteremia model, survival; format: in vivo, BALB/c mice; details: for 24 hour survival rate / 72 hour survival rate: high challenge (10^9 CFU MRSA MW2), dosing at 2 hours
# [5] = tested on: MRSA strain ATCC 700699 and MSSA strain ATCC 25923; test: microbe, parasite or virus in culture; format: cell-based, Staphylococcus aureus; details: Staphylococcus aureus
# [6] = tested on: MRSA Staphylococcus aureus strain (MW2); test: microbe, parasite or virus in culture; format: cell-based; details: for MIC: Staphylococcus aureus, MRSA; for antibiotic MIC, starting value: before serial passage
# [7] = tested on: Staphylococcus aureus (MRSA and MSSA strains); test: Synergy time-kill assay (6 hours, combination compared to most active single agent); format: cell-based; details: ½ MIC PlySs2 or ¼ MIC vancomycin alone, up to 6 hours
# [8] = DRSA (n = 8), with reducing agent
# [9] = LRSA (n = 5), with reducing agent
# [10] = MRSA (n = 45), with reducing agent
# [11] = MSSA (n-28), with reducing agent
# [12] = VISA (n = 10), with reducing agent
# [13] = VRSA (n = 14), with reducing agent
# [14] = daptomycin 50 mg/kg once daily, PlySs2 5.25 mg/kg (FIG. 27B)
# [15] = vancomycin 110 mg/kg twice daily, PlySs2 5.25 mg/kg (FIG. 27E)
compound,measurement,setting,value
CCCCCCCCCC(=O)N[C@@H](Cc1c[nH]c2ccccc12)C(=O)N[C@H](CC(N)=O)C(=O)N[C@@H](CC(=O)O)C(=O)N[C@@H]1C(=O)NCC(=O)N[C@@H](CCCN)C(=O)N[C@@H](CC(=O)O)C(=O)N[C@H](C)C(=O)N[C@@H](CC(=O)O)C(=O)NCC(=O)N[C@H](CO)C(=O)N[C@@H]([C@H](C)CC(=O)O)C(=O)N[C@@H](CC(=O)c2ccccc2N)C(=O)O[C@@H]1C [Daptomycin],MIC90,Staphylococcus aureus; [8],16
same,MIC90,Staphylococcus aureus; [9],1
same,MIC90,Staphylococcus aureus; [10],1
same,MIC90,Staphylococcus aureus; [11],1
same,MIC90,"Staphylococcus aureus; Staphylococcus aureus, DRSA (n = 8), with reducing agent, read-out: MIC90",9.9 µM
same,MIC90,"Staphylococcus aureus; Staphylococcus aureus, LRSA (n = 5), with reducing agent, read-out: MIC90",0.6 µM
same,MIC90,"Staphylococcus aureus; Staphylococcus aureus, MRSA, MRSA (n = 45), with reducing agent, read-out: MIC90",0.6 µM
same,MIC90,"Staphylococcus aureus; Staphylococcus aureus, MSSA, MSSA (n-28), with reducing agent, read-out: MIC90",0.6 µM
same,MIC90,"Staphylococcus aureus; Staphylococcus aureus, VISA, VISA (n = 10), with reducing agent, read-out: MIC90",4.9 µM
same,MIC90,"Staphylococcus aureus; Staphylococcus aureus, VRSA, VRSA (n = 14), with reducing agent, read-out: MIC90",0.6 µM
same,MIC90,Staphylococcus aureus; [12],8
same,MIC90,Staphylococcus aureus; [13],1
same,time to reach bactericidal levels (≥3-log10 reduction in CFUs),"[1]; 1×MIC, 20 MSSA and 42 MRSA strains",6 hours
same,Fold reduction,MRSA S. aureus strains; MRSA strain 223,128
same,MIC combo,MRSA S. aureus strains; MRSA strain 223,0.0075 µg/mL
same,Fold reduction,MRSA S. aureus strains; MRSA strain 241,256
same,MIC combo,MRSA S. aureus strains; MRSA strain 241,0.0037 µg/mL
same,Fold reduction,MRSA S. aureus strains; MRSA strain 263,128
same,MIC combo,MRSA S. aureus strains; MRSA strain 263,0.0075 µg/mL
same,Fold reduction,MRSA S. aureus strains; MRSA strain 269 (MW2),64
same,MIC combo,MRSA S. aureus strains; MRSA strain 269 (MW2),0.015 µg/mL
same,Fold reduction,MRSA S. aureus strains; MRSA strain 270,64
same,MIC combo,MRSA S. aureus strains; MRSA strain 270,0.015 µg/mL
same,Fold reduction,MRSA S. aureus strains; MRSA strain 553,128
same,MIC combo,MRSA S. aureus strains; MRSA strain 553,0.0075 µg/mL
same,Fold reduction,MRSA S. aureus strains; MRSA strain 650,64
same,MIC combo,MRSA S. aureus strains; MRSA strain 650,0.015 µg/mL
same,Fold reduction,MRSA S. aureus strains; MRSA strain 827,128
same,MIC combo,MRSA S. aureus strains; MRSA strain 827,0.0075 µg/mL
same,Fold reduction,MRSA S. aureus strains; MRSA strain 828,128
same,MIC combo,MRSA S. aureus strains; MRSA strain 828,0.0075 µg/mL
same,Fold reduction,MRSA S. aureus strains; MRSA strain 829,128
same,MIC combo,MRSA S. aureus strains; MRSA strain 829,0.0075 µg/mL
same,Fold reduction,MRSA S. aureus strains; MRSA strain 830,64
same,MIC combo,MRSA S. aureus strains; MRSA strain 830,0.015 µg/mL
same,Fold reduction,MRSA S. aureus strains; MRSA strain 833,128
same,MIC combo,MRSA S. aureus strains; MRSA strain 833,0.0075 µg/mL
same,fold reduction in the effective MIC,"MRSA S. aureus strains; PlySs2 and daptomycin together, a dozen MRSA strains",16-256 fold
same,MIC,"MRSA S. aureus strains; MRSA strain 223, single-agent, read-out: MIC alone",1 µg/mL
same,MIC,"MRSA S. aureus strains; MRSA strain 241, single-agent, read-out: MIC alone",1 µg/mL
same,MIC,"MRSA S. aureus strains; MRSA strain 263, single-agent, read-out: MIC alone",1 µg/mL
same,MIC,"MRSA S. aureus strains; MRSA strain 269 (MW2), single-agent, read-out: MIC alone",1 µg/mL
same,MIC,"MRSA S. aureus strains; MRSA strain 270, single-agent, read-out: MIC alone",1 µg/mL
same,MIC,"MRSA S. aureus strains; MRSA strain 553, single-agent, read-out: MIC alone",1 µg/mL
same,MIC,"MRSA S. aureus strains; MRSA strain 650, single-agent, read-out: MIC alone",1 µg/mL
same,MIC,"MRSA S. aureus strains; MRSA strain 827, single-agent, read-out: MIC alone",1 µg/mL
same,MIC,"MRSA S. aureus strains; MRSA strain 828, single-agent, read-out: MIC alone",1 µg/mL
same,MIC,"MRSA S. aureus strains; MRSA strain 829, single-agent, read-out: MIC alone",1 µg/mL
same,MIC,"MRSA S. aureus strains; MRSA strain 830, single-agent, read-out: MIC alone",1 µg/mL
same,MIC,"MRSA S. aureus strains; MRSA strain 833, single-agent, read-out: MIC alone",1 µg/mL
same,MIC,"MRSA S. aureus strains; daptomycin as single agent, read-out: MIC",1 µg/mL
same,MIC,"MRSA S. aureus strains; daptomycin with 0.25× MIC PlySs2, read-out: MIC",0.0075 µg/mL
same,decrease of MIC,MRSA S. aureus strains; daptomycin with 0.25× MIC PlySs2,128 fold
same,degree of potency enhancement,"MRSA S. aureus strains; daptomycin with PlySs2, across 12 MRSA strains",64 to 256 fold
same,time to antibiotic penetration (BODIPY-labeled daptomycin binding),S. aureus [2]; in the presence of CF-301 at 1/32nd MIC,15 min
same,time to antibiotic penetration (BODIPY-labeled daptomycin binding),S. aureus [2]; without CF-301,180 min
same,inhibition of MIC by surfactant,"[3]; Survanta, up to 15%",up to 256 fold
same,inhibition of MIC by surfactant,[3]; surfactant concentration of 1.25%,more than 20 fold
same,effective concentration in combination as fraction of MIC,MRSA strain 269 (MW2),1/1024
same,most dilute concentration in combination that still inhibits growth,MRSA strain 269 (MW2),0.25 µg/mL
same,24 hour survival rate,S. aureus [4]; [14],47%
same,72 hour survival rate,S. aureus [4]; [14],31%
same,survival at 72 hours,"S. aureus [4]; low challenge model (up to 7×10^6 CFU MRSA MW2), single dose at 4 hours, PlySs2 1.25 mg/kg, daptomycin 2 mg/kg",23%
same,MIC,"[5]; 504 h, read-out: MIC in daptomycin resistant clones",18 µg/mL
same,MIC,[5]; read-out: MIC before daptomycin resistance selection,1 µg/mL
same,MIC,"[6]; read-out: daptomycin MIC, ending values, passaged with PlySs2 (4 ug/ml) plus daptomycin, 30-day study",4 µg/mL
same,MIC,"[6]; read-out: daptomycin MIC, ending values, three daptomycin-only cultures, 30-day study",128 µg/mL
same,"antibiotic MIC, starting value",[6],1 µg/mL
same,increase of daptomycin MIC,"[6]; daptomycin-only cultures, 30-day study",64 to 128 fold
same,increase of daptomycin MIC,[6]; passaged with PlySs2 (4 ug/ml) plus daptomycin,4 fold
same,"daptomycin MIC, ending values","[6]; three daptomycin-only cultures, 30-day study",64 µg/mL
CC(=O)NC[C@H]1CN(c2ccc(N3CCOCC3)c(F)c2)C(=O)O1 [Linezolid],MIC50/90,Staphylococcus aureus; DRSA (n = 8),2
same,MIC50/90 [uM],Staphylococcus aureus; DRSA (n = 8),5.7 µM
same,MIC50/90,Staphylococcus aureus; LRSA (n = 5),>64
same,MIC50/90 [uM],Staphylococcus aureus; LRSA (n = 5),>183 µM
same,MIC50/90,Staphylococcus aureus; MRSA (n = 45),2
same,MIC50/90 [uM],Staphylococcus aureus; MRSA (n = 45),5.7 µM
same,MIC50/90,Staphylococcus aureus; MSSA (n-28),2
same,MIC50/90 [uM],Staphylococcus aureus; MSSA (n-28),5.7 µM
same,MIC50/90,Staphylococcus aureus; VISA (n = 10),2
same,MIC50/90 [uM],Staphylococcus aureus; VISA (n = 10),5.7 µM
same,MIC50/90,Staphylococcus aureus; VRSA (n = 14),2
same,MIC50/90 [uM],Staphylococcus aureus; VRSA (n = 14),5.7 µM
"Cc1onc(-c2ccccc2)c1C(=O)N[C@@H]1C(=O)N2[C@@H]1SC(C)(C)[C@@H]2C(=O)O [Oxacillin, oxacillin]",MIC50/90,Staphylococcus aureus; MRSA (n = 45),>4*
same,MIC50/90 [uM],Staphylococcus aureus; MRSA (n = 45),>10.0 µM
same,kill within 6 hours,[1]; 1×MIC,2 log10
same,relative effectiveness among antibiotic agents,[1]; MSSA strains,least effective
"CN[C@H](CC(C)C)C(=O)N[C@H]1C(=O)N[C@@H](CC(N)=O)C(=O)N[C@H]2C(=O)N[C@H]3C(=O)N[C@H](C(=O)N[C@H](C(=O)O)c4cc(O)cc(O)c4-c4cc3ccc4O)[C@H](O)c3ccc(c(Cl)c3)Oc3cc2cc(c3O[C@@H]2O[C@H](CO)[C@@H](O)[C@H](O)[C@H]2O[C@H]2C[C@](C)(N)[C@H](O)[C@H](C)O2)Oc2ccc(cc2Cl)[C@H]1O [Vancomycin, vancomycin]",MIC90,Staphylococcus aureus; [8],1
same,MIC90 [uM],Staphylococcus aureus; [8],0.7 µM
same,MIC90,Staphylococcus aureus; [9],1
same,MIC90,Staphylococcus aureus; [10],1
same,MIC90,Staphylococcus aureus; [11],1
same,MIC90,Staphylococcus aureus; Staphylococcus aureus,0.7 µM
same,MIC90,"Staphylococcus aureus; Staphylococcus aureus, MRSA",0.7 µM
same,MIC90,"Staphylococcus aureus; Staphylococcus aureus, MSSA",0.7 µM
same,MIC90,"Staphylococcus aureus; Staphylococcus aureus, VISA",2.7 µM
same,MIC90,"Staphylococcus aureus; Staphylococcus aureus, VRSA",> 10.6 µM
same,MIC90,Staphylococcus aureus; [12],4
same,MIC90,Staphylococcus aureus; [13],>16
same,kill within 6 hours,[1]; 1×MIC,2 log10
same,effectiveness alone at sub-MIC doses,[7],ineffective or poorly effective
same,time to cell wall-labeling with vancomycin,S. aureus [2]; in the presence of CF-301 (⅛^th MIC),≤ 5 min
same,time to cell wall-labeling with vancomycin,S. aureus [2]; without CF-301,30 min
same,24 hour survival rate,S. aureus [4]; [15],20%
same,72 hour survival rate,S. aureus [4]; [15],3%
same,MIC,"[6]; 600 h, read-out: vancomycin MIC, ending values, passaged with PlySs2 (8 ug/ml) plus vancomycin, 25 day",4 µg/mL
same,MIC,"[6]; 600 h, read-out: vancomycin MIC, ending values, three vancomycin-only cultures, 25-day study",16 µg/mL
same,"antibiotic MIC, starting value",[6],1 µg/mL
same,increase of vancomycin MIC,[6]; passaged with PlySs2 (8 ug/ml) plus vancomycin,2 to 4 fold
same,"vancomycin MIC, ending values","[6]; passaged with PlySs2 (8 ug/ml) plus vancomycin, 25 day",2 µg/mL
same,increase of vancomycin MIC,"[6]; vancomycin-only cultures, 25-day study",16 fold
